Measured values from the NIST ThermoML archive (doi:10.1021/je300799f).
± gives the expanded uncertainty stated by the source.

Test: xn = mol fraction of the nth substance listed
Conditions: 101 kPa, Liquid, Vibrating tube method

CCCC(=O)OCC [ethyl butanoate] + CCCCCCCCC
Conditions | mass density [kg/m3]
288.15 K, x1 = 0.0379 | 725.8 ± 0.25
288.15 K, x1 = 0.1046 | 733.19 ± 0.25
288.15 K, x1 = 0.1502 | 738.59 ± 0.25
288.15 K, x1 = 0.2013 | 744.84 ± 0.25
288.15 K, x1 = 0.2499 | 751.04 ± 0.25
288.15 K, x1 = 0.3047 | 758.28 ± 0.25
288.15 K, x1 = 0.3427 | 763.5 ± 0.26
288.15 K, x1 = 0.3961 | 771.2 ± 0.26
288.15 K, x1 = 0.4355 | 776.9 ± 0.26
288.15 K, x1 = 0.4957 | 786.1 ± 0.26
288.15 K, x1 = 0.5455 | 794.1 ± 0.26
288.15 K, x1 = 0.5857 | 800.8 ± 0.26
288.15 K, x1 = 0.6498 | 811.8 ± 0.26
288.15 K, x1 = 0.7067 | 822.09 ± 0.26
288.15 K, x1 = 0.752 | 830.65 ± 0.26
288.15 K, x1 = 0.8019 | 840.45 ± 0.27
288.15 K, x1 = 0.8502 | 850.42 ± 0.27
288.15 K, x1 = 0.904 | 861.91 ± 0.27
288.15 K, x1 = 0.9569 | 873.91 ± 0.27
288.15 K, x1 = 1 | 884.01 ± 0.23
298.15 K, x1 = 0.0486 | 719.05 ± 0.25
298.15 K, x1 = 0.0906 | 723.69 ± 0.25
298.15 K, x1 = 0.1007 | 724.84 ± 0.25
298.15 K, x1 = 0.1495 | 730.49 ± 0.25
298.15 K, x1 = 0.2442 | 742.05 ± 0.25
298.15 K, x1 = 0.2985 | 749.08 ± 0.25
298.15 K, x1 = 0.3131 | 750.97 ± 0.26
298.15 K, x1 = 0.3518 | 756.23 ± 0.26
298.15 K, x1 = 0.4357 | 768.18 ± 0.26
298.15 K, x1 = 0.5028 | 778.32 ± 0.26
298.15 K, x1 = 0.5511 | 785.92 ± 0.26
298.15 K, x1 = 0.5974 | 793.57 ± 0.26
298.15 K, x1 = 0.703 | 811.93 ± 0.26
298.15 K, x1 = 0.746 | 819.92 ± 0.26
298.15 K, x1 = 0.7879 | 827.92 ± 0.26
298.15 K, x1 = 0.8532 | 841.01 ± 0.27
298.15 K, x1 = 0.9053 | 852.07 ± 0.27
298.15 K, x1 = 1 | 873.5 ± 0.24
308.15 K, x1 = 0.0505 | 711.25 ± 0.25
308.15 K, x1 = 0.0818 | 714.63 ± 0.25
308.15 K, x1 = 0.1528 | 722.65 ± 0.25
308.15 K, x1 = 0.1872 | 726.67 ± 0.25
308.15 K, x1 = 0.2112 | 729.53 ± 0.26
308.15 K, x1 = 0.2818 | 738.36 ± 0.26
308.15 K, x1 = 0.3302 | 744.66 ± 0.26
308.15 K, x1 = 0.3685 | 749.81 ± 0.26
308.15 K, x1 = 0.426 | 757.85 ± 0.26
308.15 K, x1 = 0.4773 | 765.37 ± 0.26
308.15 K, x1 = 0.5187 | 771.59 ± 0.26
308.15 K, x1 = 0.5712 | 779.88 ± 0.26
308.15 K, x1 = 0.642 | 791.55 ± 0.26
308.15 K, x1 = 0.6753 | 797.37 ± 0.26
308.15 K, x1 = 0.726 | 806.38 ± 0.26
308.15 K, x1 = 0.7822 | 816.86 ± 0.26
308.15 K, x1 = 0.833 | 826.88 ± 0.27
308.15 K, x1 = 0.878 | 836.1 ± 0.27
308.15 K, x1 = 0.9384 | 848.96 ± 0.27
308.15 K, x1 = 1 | 862.85 ± 0.24
318.15 K, x1 = 0.0435 | 702.45 ± 0.25
318.15 K, x1 = 0.1009 | 708.56 ± 0.25
318.15 K, x1 = 0.1439 | 713.46 ± 0.26
318.15 K, x1 = 0.2001 | 719.85 ± 0.26
318.15 K, x1 = 0.2489 | 725.77 ± 0.26
318.15 K, x1 = 0.2861 | 730.43 ± 0.26
318.15 K, x1 = 0.355 | 739.26 ± 0.26
318.15 K, x1 = 0.402 | 745.62 ± 0.26
318.15 K, x1 = 0.4556 | 753.18 ± 0.26
318.15 K, x1 = 0.4988 | 759.53 ± 0.26
318.15 K, x1 = 0.547 | 766.88 ± 0.26
318.15 K, x1 = 0.6011 | 775.45 ± 0.26
318.15 K, x1 = 0.656 | 784.53 ± 0.26
318.15 K, x1 = 0.6951 | 791.27 ± 0.26
318.15 K, x1 = 0.7543 | 801.83 ± 0.26
318.15 K, x1 = 0.7999 | 810.52 ± 0.27
318.15 K, x1 = 0.8485 | 819.97 ± 0.27
318.15 K, x1 = 0.8947 | 829.27 ± 0.27
318.15 K, x1 = 0.9545 | 842.03 ± 0.27
318.15 K, x1 = 1 | 852.26 ± 0.24
328.15 K, x1 = 0.0481 | 695.05 ± 0.26
328.15 K, x1 = 0.1134 | 701.93 ± 0.26
328.15 K, x1 = 0.1627 | 707.35 ± 0.26
328.15 K, x1 = 0.2102 | 712.81 ± 0.26
328.15 K, x1 = 0.2589 | 718.53 ± 0.26
328.15 K, x1 = 0.3111 | 725 ± 0.26
328.15 K, x1 = 0.3588 | 731.17 ± 0.26
328.15 K, x1 = 0.402 | 736.91 ± 0.26
328.15 K, x1 = 0.4562 | 744.36 ± 0.26
328.15 K, x1 = 0.5565 | 759.06 ± 0.26
328.15 K, x1 = 0.5996 | 765.77 ± 0.26
328.15 K, x1 = 0.6524 | 774.29 ± 0.26
328.15 K, x1 = 0.7062 | 783.42 ± 0.26
328.15 K, x1 = 0.7544 | 791.91 ± 0.26
328.15 K, x1 = 0.806 | 801.44 ± 0.26
328.15 K, x1 = 0.8433 | 808.67 ± 0.27
328.15 K, x1 = 0.8917 | 818.28 ± 0.27
328.15 K, x1 = 0.9532 | 831.23 ± 0.27
328.15 K, x1 = 1 | 841.55 ± 0.24
